Where two headings read alike, the source gives them in different places.
Key:
NF-κB = NF-κB luciferase assay, TNFα-induced, NIH-3T3-KBF-Luc cells
CB1R [1] = biological target: T1, CB1R (Homo sapiens, UniProt P21554); assay: cell-based
T1 construct: expressed in transfected cells; host or cells: HEK293T (HEK293T-CB1), transiently co-transfected with CRE-luc reporter

COX-2 = biological target: T2, COX-2 (Homo sapiens, UniProt P35354); details: Takeda et al 2008; cited from earlier work
T2 sequence (P35354 18-604): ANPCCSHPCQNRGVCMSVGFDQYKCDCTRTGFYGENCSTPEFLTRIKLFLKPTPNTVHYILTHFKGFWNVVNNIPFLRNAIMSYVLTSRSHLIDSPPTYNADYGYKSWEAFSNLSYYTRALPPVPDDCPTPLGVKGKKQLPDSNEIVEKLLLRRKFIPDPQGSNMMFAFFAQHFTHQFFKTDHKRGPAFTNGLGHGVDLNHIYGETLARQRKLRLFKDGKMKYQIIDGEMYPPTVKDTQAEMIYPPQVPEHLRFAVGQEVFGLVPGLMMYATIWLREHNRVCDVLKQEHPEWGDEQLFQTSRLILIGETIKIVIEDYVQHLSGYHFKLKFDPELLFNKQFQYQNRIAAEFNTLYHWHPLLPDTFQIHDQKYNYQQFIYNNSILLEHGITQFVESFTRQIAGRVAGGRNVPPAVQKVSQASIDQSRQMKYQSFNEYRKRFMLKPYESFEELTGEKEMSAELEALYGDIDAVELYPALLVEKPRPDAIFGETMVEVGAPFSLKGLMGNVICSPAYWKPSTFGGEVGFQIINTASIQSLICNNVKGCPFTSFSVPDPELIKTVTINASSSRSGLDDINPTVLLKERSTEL

CB1R [2] = biological target: T1, CB1R; format: cell-based
CB2R = CB2R (Homo sapiens, UniProt P34972); assay: CB2R agonism assay, HEK293T-CB2 cells with CRE-Luc reporter, forskolin-stimulated; details: for Conclusions: Is CB2R agonist effect observed? / Experiment 1 % of activity / Experiment 2 % of activity / Experiment 3 % of activity: THC 10 μM or THCA 10 μM alone; for Experiment 1 % of activity / Experiment 2 % of activity / Experiment 3 % of activity: forskolin = 100%
[3] = read-out: Experiment 1 % of activity
[4] = read-out: Experiment 2 % of activity
[5] = read-out: Experiment 3 % of activity
[6] = THC 10 μM or CBD 10 μM alone, TNFα = 100%
[7] = THCA 10 μM or THC 10 μM alone, CP55940 = 100%
[8] = TNFα 30 ng/mL (control without inhibitor)

T1 sequence (P21554 whole entry): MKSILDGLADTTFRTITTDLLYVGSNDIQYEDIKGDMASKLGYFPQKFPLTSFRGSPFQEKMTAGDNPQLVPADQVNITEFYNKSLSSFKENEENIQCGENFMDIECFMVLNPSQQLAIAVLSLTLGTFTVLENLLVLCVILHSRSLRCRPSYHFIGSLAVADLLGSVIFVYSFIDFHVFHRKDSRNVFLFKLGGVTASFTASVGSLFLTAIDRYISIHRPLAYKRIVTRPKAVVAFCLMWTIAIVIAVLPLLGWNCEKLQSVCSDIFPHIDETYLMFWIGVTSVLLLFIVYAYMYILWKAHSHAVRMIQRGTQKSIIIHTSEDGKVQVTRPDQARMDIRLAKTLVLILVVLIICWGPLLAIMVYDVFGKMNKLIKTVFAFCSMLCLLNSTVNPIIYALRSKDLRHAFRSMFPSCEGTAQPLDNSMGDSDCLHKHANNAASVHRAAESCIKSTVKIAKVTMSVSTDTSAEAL
Sequence of CB2R (P34972 whole entry): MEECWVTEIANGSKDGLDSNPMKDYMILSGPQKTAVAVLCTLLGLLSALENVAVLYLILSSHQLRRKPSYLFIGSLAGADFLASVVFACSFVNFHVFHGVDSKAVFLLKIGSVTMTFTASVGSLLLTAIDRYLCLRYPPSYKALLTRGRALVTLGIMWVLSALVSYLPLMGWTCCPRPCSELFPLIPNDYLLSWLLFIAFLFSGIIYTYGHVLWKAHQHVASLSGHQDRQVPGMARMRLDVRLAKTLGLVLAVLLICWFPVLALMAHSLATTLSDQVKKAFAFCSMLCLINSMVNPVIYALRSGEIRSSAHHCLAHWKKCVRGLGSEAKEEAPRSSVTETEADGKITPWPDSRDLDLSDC

In the case of `C=C(C)[C@@H]1CCC(C)=C[C@H]1c1c(O)cc(CCCCC)cc1O` [CBD, cannabidiol], the “Conclusions: Is NF-κB inhibitor effect observed?” value (NF-κB; THC 10 μM or CBD 10 μM alone) is reported as “Negative”, the activity at 10 µM (NF-κB; [3]) is reported as 136% and the activity at 10 µM (NF-κB; [4]) is reported as 86.4%. For the same compound, the activity at 10 µM (NF-κB; [5]) was 106%, the “Conclusions: Is CB1R antagonist effect observed?” value (CB1R [1]; CBD 1 μM alone) was “Negative” and the activity at 1 µM (CB1R [1]; CBD 1 μM alone, CP55940 = 100%, read-out: Experiment 1 % of activity) was 61.3%. For the same compound, the activity at 1 µM (CB1R [1]; CBD 1 μM alone, CP55940 = 100%, read-out: Experiment 2 % of activity) was 55.9% and the activity at 1 µM (CB1R [1]; CBD 1 μM alone, CP55940 = 100%, read-out: Experiment 3 % of activity) was 57.4%.
In the case of `C=C(C)[C@@H]1CCC(C)=C[C@H]1c1c(O)cc(CCCCC)c(C(=O)O)c1O` [CBDA, cannabidiolic acid], the “selectivity for COX-2 than COX-1 inhibition” value (COX-2) is given as 9 fold.
In the case of `CCCCCCC(C)(C)c1ccc([C@@H]2C[C@H](O)CC[C@H]2CCCO)c(O)c1` [CP], the “Conclusions: Is CB1R agonist effect observed?” value (CB1R [2]) is reported as “+ (key: +: positive result (CB1R activity ≥2.5-fold increase) are considered agonists of CB1R activity)”, the “Experiment 1 Fold change” value (CB1R [2]) is reported as 2.5 fold and the “Experiment 2 Fold change” value (CB1R [2]) is reported as 2.5 fold. The “Experiment 3 Fold change” value (CB1R [2]) was 2.5 fold, the “Conclusions: Is CB1R antagonist effect observed?” value (CB1R [1]) was “Negative” and the activity at 5 µM (CB1R [1]; [3]) was 100%. The activity at 5 µM (CB1R [1]; [4]) was 100% and the activity at 5 µM (CB1R [1]; [5]) was 100%.
For `COc1cc(/C=C/C(=O)CC(=O)/C=C/c2ccc(O)c(OC)c2)ccc1O` [Curcumin, diferuloylmethane (curcumin)], the “Conclusions: Is NF-κB inhibitor effect observed?” value (NF-κB; Curcumin 5 μM, alone or + THC 10 μM or + CBD 10 μM) was “+ (positive result (activity ≤50%) are considered inhibitory of NF-κB activity)”, the “Conclusions: Is NF-κB inhibitor effect observed?” value (NF-κB; Curcumin 10 μM, alone or + THC 10 μM or + CBD 10 μM) was “+ (positive result (activity ≤50%) are considered inhibitory of NF-κB activity)” and the “Conclusions: Is NF-κB inhibitor effect observed?” value (NF-κB; Curcumin 15 μM, alone or + THC 10 μM or + CBD 10 μM) was “+ (positive result (activity ≤50%) are considered inhibitory of NF-κB activity)”. It also gave an IC50 (NF-κB; read-out: anti-NF-κB IC50) of 3.91 µM and an EC50 (CB2R) of 5970 µM.
For `C=C[C@@]1(C)CC(=O)[C@]2(O)[C@@]3(C)[C@@H](O)CCC(C)(C)[C@@H]3[C@H](O)[C@H](OC(C)=O)[C@@]2(C)O1` [Forskolin], the activity at 1 µM (CB2R; [3]) was 100%, the activity at 1 µM (CB2R; [4]) was 100% and the activity at 1 µM (CB2R; [5]) was 100%.
In the case of `CCCCCc1cc(O)c2c(c1)OC(C)(C)[C@@H]1CCC(C)=C[C@@H]21` [THC, tetrahydrocannabinol], the “Conclusions: Is NF-κB inhibitor effect observed?” value (NF-κB; THC 10 μM or CBD 10 μM alone) is reported as “Negative”, the “Experiment 1 % of activity” value (NF-κB; [6]) is reported as 122.2% and the “Experiment 2 % of activity” value (NF-κB; [6]) is reported as 84.9%. The “Experiment 3 % of activity” value (NF-κB; [6]) was 88.8%, the “Conclusions: Is CB2R agonist effect observed?” value (CB2R) was “Negative” and the “Experiment 1 % of activity” value (CB2R) was 54.7%. The “Experiment 2 % of activity” value (CB2R) was 73.7% and the “Experiment 3 % of activity” value (CB2R) was 60.3%.
For `CCCCCc1cc2c(c(O)c1C(=O)O)[C@@H]1C=C(C)CC[C@H]1C(C)(C)O2` [THCA, tetrahydrocannabinolic acid], the “Conclusions: Is CB1R agonist effect observed?” value (CB1R [2]; THCA 10 μM or THC 10 μM alone) was “Negative”, the “Experiment 1 Fold change” value (CB1R [2]; THCA 10 μM or THC 10 μM alone) was 0.9 fold and the “Experiment 2 Fold change” value (CB1R [2]; THCA 10 μM or THC 10 μM alone) was 0.8 fold. The “Experiment 3 Fold change” value (CB1R [2]; THCA 10 μM or THC 10 μM alone) was 1.1 fold, the “Conclusions: Is CB1R antagonist effect observed?” value (CB1R [1]; THCA 10 μM or THC 10 μM alone) was “Negative” and the “Experiment 1 % of activity” value (CB1R [1]; [7]) was 116.7%. For the same compound, the “Experiment 2 % of activity” value (CB1R [1]; [7]) was 116.0%, the “Experiment 3 % of activity” value (CB1R [1]; [7]) was 56.4% and the “Conclusions: Is CB2R agonist effect observed?” value (CB2R) was “Negative”. The “Experiment 1 % of activity” value (CB2R) was 115.6%, the “Experiment 2 % of activity” value (CB2R) was 105.6% and the “Experiment 3 % of activity” value (CB2R) was 124.6%.
In the case of TNFα, the “Conclusions: Is NF-κB inhibitor effect observed?” value (NF-κB; [8]) is reported as “Negative”, the “Experiment 1 % of activity” value (NF-κB; [8]) is reported as 100.0% and the “Experiment 2 % of activity” value (NF-κB; [8]) is reported as 100.0%. For the same compound, the “Experiment 3 % of activity” value (NF-κB; [8]) was 100.0%.

Reference: patent US20210236575A1 (priority 2018, published 2021)
